The results in this text go back to ChEMBL document CHEMBL1133399, “2-(Alkylthio)pyrimidin-4-ones as novel, reversible inhibitors of lipoprotein-associated phospholipase A2” (Bioorg Med Chem Lett, 2000).

Experiment [1] concerns the target T1, Platelet-activating factor acetylhydrolase (Homo sapiens, UniProt Q13093).
T1 sequence (Q13093 whole entry): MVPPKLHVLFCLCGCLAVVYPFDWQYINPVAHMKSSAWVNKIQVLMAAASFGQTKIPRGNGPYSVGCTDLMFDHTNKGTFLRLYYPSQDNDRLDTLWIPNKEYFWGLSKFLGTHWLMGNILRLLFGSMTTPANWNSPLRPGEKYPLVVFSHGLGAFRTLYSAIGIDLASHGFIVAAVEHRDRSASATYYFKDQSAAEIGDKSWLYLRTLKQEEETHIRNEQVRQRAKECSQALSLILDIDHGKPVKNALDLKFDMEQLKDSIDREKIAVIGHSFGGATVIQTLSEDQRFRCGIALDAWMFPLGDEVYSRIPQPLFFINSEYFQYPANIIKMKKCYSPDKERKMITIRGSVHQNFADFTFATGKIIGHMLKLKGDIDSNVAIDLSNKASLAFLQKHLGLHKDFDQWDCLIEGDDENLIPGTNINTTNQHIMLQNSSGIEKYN
As to the kind of experiment: Inhibition of lipoprotein-associated phospholipase A2 (Lp-PLA2).

Experiment [2] deals with T1, Platelet-activating factor acetylhydrolase. In words: The compound was tested for inhibition of Lipoprotein-associated phospholipase A2 (Lp-PLA2).
Experiment [3] addresses T2, Platelet-activating factor acetylhydrolase (Homo sapiens) (UniProt Q13093).
T2 sequence (whole entry): T1 sequence (Q13093 whole entry)
In words: The compound was tested for inhibition of Lipoprotein-associated phospholipase A2 (Lp-PLA2) at 10 uM.

Experiment [4] deals with T2, Platelet-activating factor acetylhydrolase (Homo sapiens). In words: The compound was tested for inhibition of Lipoprotein-associated phospholipase A2 (Lp-PLA2) at 30 uM.

The IC50 is the concentration that gives 50% inhibition. Read a low IC50 as higher potency. `O=C(CCCCCCCSc1ncc(Cc2cccnc2)c(O)n1)c1ccc(Cl)cc1` showed a half-maximal inhibitory concentration (IC50) in experiment [1] of 110 nM. By Ki is commonly meant the dissociation constant of the complex between target and ligand, obtained from inhibition or displacement. Read a high Ki as a looser hold on the target. In the case of `Cn1ccc(Cc2cnc(SCCCCCCCC(=O)c3ccc(Cl)cc3)[nH]c2=O)cc1=O`, the half-maximal inhibitory concentration (IC50) in experiment [1] is 72 nM. In experiment [2], affinity was put at a Ki of 41 nM.

As to `O=c1[nH]c(SCc2ccccc2)ncc1Cc1ccncc1`, in experiment [1], the IC50 is 4400 nM. In other words, the single-digit micromolar range. `O=c1[nH]c(SCc2ccc(Cl)cc2)ncc1Cc1cccnc1`: in experiment [1], the concentration for half-maximal inhibition (IC50) turned out to be 4400 nM.

`Oc1nc(SCc2ccc(F)cc2)ncc1Cc1cncnc1` came in with an IC50 in experiment [1] of 850 nM.

In experiment [1], `COc1cc(Cc2cnc(SCCCCCCCCc3ccccc3)nc2O)ccn1` had a 50% inhibitory concentration (IC50) of 1000 nM. In experiment [1], `O=c1[nH]c(SCCCCCCCCc2cccc(Cl)c2)ncc1Cc1cccnc1` displayed an IC50 of 850 nM. The IC50 values of the last two compounds are within 1.5-fold of each other. In experiment [1], `Cc1ccc(Cc2cnc(SCCCCCCOCc3ccc(Cl)cc3)[nH]c2=O)cn1` came in with an IC50 of 1200 nM. The IC50 values of the last two compounds are within 1.5-fold of each other.

Take `CCCCn1ccc(Cc2cnc(SCCCCCCCCc3ccccc3)nc2O)cc1=O`: inhibition in experiment [1] was half-maximal at 780 nM (IC50). Same read-out and setting: the same measure for `Oc1nc(SCc2ccccc2)ncc1Cc1cncnc1`: 1100 nM. On the same count and under the same terms, the same measure for `Cc1ccc(Cc2cnc(SCCCCCCCc3ccccc3)nc2O)cn1`: 1000 nM.

As usually defined, the inhibition is the change of the read-out against control, counted positive when it falls. For `Oc1nc(SCCCCCCCCc2ccccc2)ncc1Cc1ccoc1`, the inhibition in experiment [3] worked out at 63%. Take `O=c1[nH]c(SCc2ccccc2)ncc1Cc1cccnc1`: in experiment [1], half-maximal inhibition (IC50) required 1100 nM. As for `Oc1nc(SCCCCCCCOc2ccc(Cl)cc2)ncc1Cc1cccnc1`, in experiment [1], the IC50 stood at 230 nM. In turn, `O=c1[nH]c(SCCCCCCCCc2ccccc2)ncc1Cc1ccncc1` came in with an IC50 in experiment [1] of 630 nM. The same measure, in the same setting: the same measure for `O=c1[nH]c(SCCCCCCc2ccccc2)ncc1Cc1cccnc1`: 2300 nM; for `O=C(CCCCCCCSc1ncc(Cc2cncnc2)c(O)n1)c1ccc(Cl)cc1`: 54 nM. `Cc1nc(SCCCCCCCC(=O)c2ccc(Cl)cc2)nc(O)c1Cc1cccnc1` came in with an inhibition in experiment [3] of 40%. On to `Cc1ccc(Cc2cnc(OCCCCc3ccccc3)nc2O)cn1`, for which, in experiment [1], half-maximal inhibition (IC50) was put at 12000 nM. In other words, the double-digit micromolar range. For `Oc1nc(SCCCCCCCCc2ccccc2)ncc1Cc1ccccn1`, in experiment [3], the inhibition stood at 38%. Compound `Oc1nc(SCCCCCCCSc2ccc(Cl)cc2)ncc1Cc1cccnc1` gave an IC50 in experiment [1] of 250 nM. On the same count and under the same terms, the same measure for `O=C(CCCCCCCSc1ncc(Cc2cccnc2)c(O)n1)c1cccs1`: 1300 nM; for `O=C(CCCCCCCCSc1ncc(Cc2cccnc2)c(=O)[nH]1)c1ccc(Cl)cc1`: 650 nM.

With `CC(=O)c1ccc(CCCCCCCCSc2ncc(Cc3cccnc3)c(O)n2)cc1`, the concentration for half-maximal inhibition (IC50) in experiment [1] worked out at 2900 nM. For the compound `Oc1nc(SCCCCCCCCc2ccccc2)ncc1Cc1ccccc1`, in experiment [3], the inhibition amounted to 0%. Still for that read-out and setting: the same measure for `O=C(CSc1ncc(Cc2cccnc2)c(O)n1)c1ccccc1`: 0%.

In turn, `[O-][S+](CCCCCCCSc1ncc(Cc2cccnc2)c(O)n1)c1ccc(Cl)cc1` (configuration not stated) registered an IC50 in experiment [1] of 17000 nM. Compound `O=S(=O)(CCCCCCCSc1ncc(Cc2cccnc2)c(O)n1)c1ccc(Cl)cc1` yielded an IC50 in experiment [1] of 12600 nM. The same measure, in the same setting: the same measure for `Cc1ccc(Cc2cnc(SCCCCCCCCCc3ccccc3)nc2O)cn1`: 990 nM; for `Oc1nc(SCCCCCCCCc2ccc(Cl)cc2)ncc1Cc1cccnc1`: 200 nM. The same measure, in the same setting: the same measure for `O=C(CCCCCCCOc1ncc(Cc2cccnc2)c(=O)[nH]1)c1ccc(Cl)cc1`: 64 nM. `Cc1ccc(Cc2cnc(SCCCc3ccccc3)nc2O)cn1` showed an inhibition in experiment [4] of 10%. As to `COc1ccc(CCCCCCCCSc2ncc(Cc3ccc(C)nc3)c(O)n2)cc1`, the IC50 in experiment [1] was 1100 nM. In other words, the single-digit micromolar range.

Turning to `O=C(NCCCCCCSc1ncc(Cc2cccnc2)c(O)n1)c1ccc(Cl)cc1`, the inhibition in experiment [3] was 41%.

`Oc1nc(SCCCCCCCCCc2ccccc2)ncc1Cc1cccnc1` had an IC50 in experiment [1] of 430 nM.

`O=C(CCCCCCCSc1ncc(Cc2cnccn2)c(=O)[nH]1)c1ccc(Cl)cc1`: half-maximal inhibition in experiment [1] (IC50) was put at 640 nM. This IC50 and that of the compound before are within 1.5-fold of each other.
